# ChEMBL document CHEMBL1201862, “PubChem BioAssay data set” (2004)
#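 Interpolation was linear, between the two tested concentrations surrounding the appropriate level; five concentrations were tested over 48 hours in 96-well plates. GI50 = concentration required for 50% inhibition of growth.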 The source made the active and inactive calls. No stated cut-off is given here; in the data, active = GI50 up to about 1.1 µM and inactive = higher.
# Columns and labels:
# Experiment in all cases: NCI anticancer screen, dose series, 48 h
# HCT-15 = tested on: HCT-15
# NCI/ADR-RES = tested on: NCI/ADR-RES
# HT-29 = tested on: HT-29
# NCI-H522 = tested on: NCI-H522
# SNB-75 = tested on: SNB-75
# TK-10 = tested on: TK-10
# SK-MEL-2 = tested on: SK-MEL-2
# CAKI-1 = tested on: CAKI-1
# A549 = tested on: A549
# SF-539 = tested on: SF-539
# UACC-62 = tested on: UACC-62
# SK-MEL-5 = tested on: SK-MEL-5
# Hs-578T = tested on: Hs-578T
# Malme-3M = tested on: Malme-3M
# SF-268 = tested on: SF-268
# RPMI-8226 = tested on: RPMI-8226
# DU-145 = tested on: DU-145
# OVCAR-4 = tested on: OVCAR-4
# COLO 205 = tested on: COLO 205
# SK-MEL-28 = tested on: SK-MEL-28
# SK-OV-3 = tested on: SK-OV-3
# MDA-MB-231 = tested on: MDA-MB-231
# RXF 393 = tested on: RXF 393
# OVCAR-8 = tested on: OVCAR-8
# T47D = tested on: T47D
# A498 = tested on: A498
# HCC 2998 = tested on: HCC 2998
# UACC-257 = tested on: UACC-257
# K562 = tested on: K562
# PC-3 = tested on: PC-3
# NCI-H226 = tested on: NCI-H226
# M14 = tested on: M14
# BT-549 = tested on: BT-549
# MDA-MB-435 = tested on: MDA-MB-435
# HOP-62 = tested on: HOP-62
# SW-620 = tested on: SW-620
# OVCAR-5 = tested on: OVCAR-5
# ACHN = tested on: ACHN
# 786-0 = tested on: 786-0
# SNB-19 = tested on: SNB-19
# MCF7 = tested on: MCF7
# NCI-H460 = tested on: NCI-H460
# SN12C = tested on: SN12C
# IGROV-1 = tested on: IGROV-1
# NCI-H23 = tested on: NCI-H23
# KM12 = tested on: KM12
# EKVX = tested on: EKVX
# CCRF-CEM = tested on: CCRF-CEM
# LOX IMVI = tested on: LOX IMVI
# U-251 = tested on: U-251
# HCT-116 = tested on: HCT-116
# SF-295 = tested on: SF-295
# UO-31 = tested on: UO-31
# SR = tested on: SR
# OVCAR-3 = tested on: OVCAR-3
# MOLT-4 = tested on: MOLT-4
# HOP-92 = tested on: HOP-92
# HL-60 = tested on: HL-60
smiles,measurement,setting,value
COc1cc2nc(-c3cccs3)nc(N3C(c4ccc(O)cc4)=NNC(=O)c4ccccc43)c2cc1OC,GI50,HCT-15,32 µM
same,GI50,NCI/ADR-RES,17.7 µM (inactive)
same,GI50,HT-29,23.1 µM (inactive)
same,GI50,NCI-H522,86.9 µM (inactive)
same,GI50,SNB-75,24 µM (inactive)
same,GI50,TK-10,30.5 µM (inactive)
same,GI50,SK-MEL-2,26.9 µM (inactive)
same,GI50,CAKI-1,22.2 µM (inactive)
same,GI50,A549,55.6 µM (inactive)
same,GI50,SF-539,< 0.01 µM (active)
same,GI50,UACC-62,20.5 µM (inactive)
same,GI50,SK-MEL-5,46.8 µM (inactive)
same,GI50,Hs-578T,42.9 µM (inactive)
same,GI50,Malme-3M,21.1 µM (inactive)
same,GI50,SF-268,28.7 µM (inactive)
same,GI50,RPMI-8226,15 µM (inactive)
same,GI50,DU-145,4.54 µM (inactive)
same,GI50,OVCAR-4,28.8 µM (inactive)
same,GI50,COLO 205,20.8 µM (inactive)
same,GI50,SK-MEL-28,25.4 µM (inactive)
same,GI50,SK-OV-3,38 µM (inactive)
same,GI50,MDA-MB-231,18.9 µM (inactive)
same,GI50,RXF 393,19.8 µM (inactive)
same,GI50,OVCAR-8,36.1 µM (inactive)
same,GI50,T47D,29.2 µM (inactive)
same,GI50,A498,> 100 µM (inactive)
same,GI50,HCC 2998,18.6 µM (inactive)
same,GI50,UACC-257,28.4 µM (inactive)
same,GI50,K562,17.5 µM (inactive)
same,GI50,PC-3,25.6 µM (inactive)
same,GI50,NCI-H226,23.3 µM (inactive)
same,GI50,M14,29.5 µM (inactive)
same,GI50,BT-549,21 µM (inactive)
same,GI50,MDA-MB-435,26.2 µM (inactive)
same,GI50,HOP-62,56.5 µM (inactive)
same,GI50,SW-620,30.4 µM (inactive)
same,GI50,OVCAR-5,28.8 µM (inactive)
same,GI50,ACHN,23.7 µM (inactive)
same,GI50,786-0,52.8 µM (inactive)
same,GI50,SNB-19,35.6 µM (inactive)
same,GI50,MCF7,36.7 µM (inactive)
same,GI50,NCI-H460,26.5 µM (inactive)
same,GI50,SN12C,24.2 µM (inactive)
same,GI50,IGROV-1,32.7 µM (inactive)
same,GI50,NCI-H23,27.5 µM (inactive)
same,GI50,KM12,32.7 µM (inactive)
same,GI50,EKVX,3.9 µM (inactive)
same,GI50,CCRF-CEM,4.99 µM (inactive)
same,GI50,LOX IMVI,22.3 µM (inactive)
same,GI50,U-251,27.8 µM (inactive)
same,GI50,HCT-116,32.4 µM (inactive)
same,GI50,SF-295,19.5 µM (inactive)
same,GI50,UO-31,19 µM (inactive)
C[N+](C)([O-])Cc1cc(-c2ccccc2)ccc1O,GI50,HCT-15,> 100 µM
same,GI50,NCI/ADR-RES,> 100 µM (inactive)
same,GI50,HT-29,> 100 µM (inactive)
same,GI50,NCI-H522,> 100 µM (inactive)
same,GI50,SNB-75,> 100 µM (inactive)
same,GI50,TK-10,> 100 µM (inactive)
same,GI50,SK-MEL-2,> 100 µM (inactive)
same,GI50,CAKI-1,> 100 µM (inactive)
same,GI50,A549,> 100 µM (inactive)
same,GI50,SR,49.1 µM (inactive)
same,GI50,OVCAR-3,> 100 µM (inactive)
same,GI50,MOLT-4,52.5 µM (inactive)
same,GI50,UACC-62,> 100 µM (inactive)
same,GI50,SK-MEL-5,> 100 µM (inactive)
same,GI50,Hs-578T,79.3 µM (inactive)
same,GI50,Malme-3M,> 100 µM (inactive)
same,GI50,SF-268,> 100 µM (inactive)
same,GI50,DU-145,> 100 µM (inactive)
same,GI50,OVCAR-4,> 100 µM (inactive)
same,GI50,SK-MEL-28,> 100 µM (inactive)
same,GI50,MDA-MB-231,> 100 µM (inactive)
same,GI50,RXF 393,> 100 µM (inactive)
same,GI50,T47D,> 100 µM (inactive)
same,GI50,HOP-92,> 100 µM (inactive)
same,GI50,A498,> 100 µM (inactive)
same,GI50,HCC 2998,> 100 µM (inactive)
same,GI50,UACC-257,> 100 µM (inactive)
same,GI50,K562,> 100 µM (inactive)
same,GI50,PC-3,> 100 µM (inactive)
same,GI50,NCI-H226,> 100 µM (inactive)
same,GI50,M14,> 100 µM (inactive)
same,GI50,BT-549,> 100 µM (inactive)
same,GI50,MDA-MB-435,> 100 µM (inactive)
same,GI50,HOP-62,> 100 µM (inactive)
same,GI50,SW-620,> 100 µM (inactive)
same,GI50,OVCAR-5,> 100 µM (inactive)
same,GI50,ACHN,> 100 µM (inactive)
same,GI50,786-0,> 100 µM (inactive)
same,GI50,SNB-19,> 100 µM (inactive)
same,GI50,NCI-H460,72.8 µM (inactive)
same,GI50,SN12C,> 100 µM (inactive)
same,GI50,IGROV-1,> 100 µM (inactive)
same,GI50,NCI-H23,> 100 µM (inactive)
same,GI50,KM12,> 100 µM (inactive)
same,GI50,EKVX,> 100 µM (inactive)
same,GI50,LOX IMVI,> 100 µM (inactive)
same,GI50,U-251,> 100 µM (inactive)
same,GI50,HCT-116,> 100 µM (inactive)
same,GI50,SF-295,> 100 µM (inactive)
same,GI50,UO-31,> 100 µM (inactive)
Cc1ccccc1NC(=O)NC(Oc1ccccc1)(C(F)(F)F)C(F)(F)F,GI50,HL-60,> 100 µM (inactive)
same,GI50,NCI/ADR-RES,> 100 µM (inactive)
same,GI50,HT-29,> 100 µM (inactive)
same,GI50,SNB-75,> 100 µM (inactive)
same,GI50,SK-MEL-2,> 100 µM (inactive)
same,GI50,CAKI-1,22.4 µM (inactive)
same,GI50,SR,> 100 µM (inactive)
same,GI50,MOLT-4,> 100 µM (inactive)
same,GI50,SF-539,> 100 µM (inactive)
same,GI50,Hs-578T,> 100 µM (inactive)
same,GI50,SF-268,> 100 µM (inactive)
same,GI50,RPMI-8226,> 100 µM (inactive)
same,GI50,COLO 205,> 100 µM (inactive)
same,GI50,SK-MEL-28,> 100 µM (inactive)
same,GI50,SK-OV-3,> 100 µM (inactive)
same,GI50,RXF 393,73.1 µM (inactive)
same,GI50,T47D,> 100 µM (inactive)
same,GI50,A498,> 100 µM (inactive)
same,GI50,HCC 2998,> 100 µM (inactive)
same,GI50,UACC-257,> 100 µM (inactive)
same,GI50,K562,> 100 µM (inactive)
same,GI50,M14,> 100 µM (inactive)
same,GI50,BT-549,> 100 µM (inactive)
same,GI50,MDA-MB-435,> 100 µM (inactive)
same,GI50,OVCAR-5,> 100 µM (inactive)
same,GI50,ACHN,> 100 µM (inactive)
same,GI50,786-0,> 100 µM (inactive)
same,GI50,SNB-19,> 100 µM (inactive)
same,GI50,IGROV-1,> 100 µM (inactive)
same,GI50,NCI-H23,> 100 µM (inactive)
same,GI50,CCRF-CEM,> 100 µM (inactive)
same,GI50,U-251,> 100 µM (inactive)
same,GI50,HCT-116,> 100 µM (inactive)
same,GI50,UO-31,> 100 µM (inactive)
